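Exposure lasted 48 hours, with cells grown in 96-well plates and compounds tested at five concentrations. The concentration for 50% growth inhibition is given as GI50.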 Activity calls are given as the source filed them. Cut-off read from the data, not from the text of the source: active = GI50 up to about 1.1 µM and inactive = higher.
How the values were obtained:
Assay in all cases: DTP human tumour cell line panel, 48 h
[1] = system: TK-10
[2] = system: HT-29
[3] = system: CAKI-1
[4] = system: EKVX
[5] = system: HCT-116
[6] = system: M14
[7] = system: HOP-92
[8] = system: NCI/ADR-RES
[9] = system: NCI-H460
[10] = system: OVCAR-4
[11] = system: OVCAR-5
[12] = system: HCT-15
[13] = system: MDA-MB-231
[14] = system: SK-OV-3
[15] = system: NCI-H226
[16] = system: Hs-578T
[17] = system: 786-0
[18] = system: MDA-MB-435
[19] = system: DU-145
[20] = system: SNB-75

Structure (SMILES) | GI50 [1] | GI50 [2] | GI50 [3] | GI50 [4] | GI50 [5] | GI50 [6] | GI50 [7] | GI50 [8] | GI50 [9] | GI50 [10] | GI50 [11] | GI50 [12] [µM] | GI50 [13] | GI50 [14] | GI50 [15] | GI50 [16] | GI50 [17] | GI50 [18] | GI50 [19] | GI50 [20]
Cc1ccc(-n2cc(-c3ccc(Cl)cc3)c(C#N)c2N)cc1 | 14.7 µM (inactive) | 14 µM (inactive) | 21.2 µM (inactive) | 15.2 µM (inactive) | 14 µM (inactive) | 15.3 µM (inactive) | 17 µM (inactive) | 17.3 µM (inactive) | 15.1 µM (inactive) | 14.3 µM (inactive) | 15.1 µM (inactive) | 12.1 | 14.7 µM (inactive) | 20.7 µM (inactive) | 12.8 µM (inactive) | 2.38 µM (inactive) | 15.3 µM (inactive) | 17.3 µM (inactive) | 25.2 µM (inactive) | 20.3 µM (inactive)
COc1cnc2cc(C(=O)O)c3c([N+](=O)[O-])cccc3c2c1 | > 100 µM (inactive) | > 100 µM (inactive) | > 100 µM (inactive) | > 100 µM (inactive) | > 100 µM (inactive) | > 100 µM (inactive) | > 100 µM (inactive) | > 100 µM (inactive) | > 100 µM (inactive) | > 100 µM (inactive) | > 100 µM (inactive) | > 100 | > 100 µM (inactive) | > 100 µM (inactive) | > 100 µM (inactive) | > 100 µM (inactive) | > 100 µM (inactive) | > 100 µM (inactive) | > 100 µM (inactive) | > 100 µM (inactive)
CC(C)(C)OC(=O)N1C/C=C\C(=O)C2(OCCO2)c2ccccc21 | 24.3 µM (inactive) | 19.2 µM (inactive) | 33.7 µM (inactive) | 31.3 µM (inactive) | 17.4 µM (inactive) | 20.7 µM (inactive) | 15.9 µM (inactive) | 47.5 µM (inactive) | 22.7 µM (inactive) | 28.4 µM (inactive) | > 100 µM (inactive) | 31.7 | 19.6 µM (inactive) | 37.3 µM (inactive) | 19.1 µM (inactive) | 45 µM (inactive) | 23.9 µM (inactive) | 17.7 µM (inactive) | 28.6 µM (inactive) | 28.2 µM (inactive)
Nc1sccc1S(=O)(=O)c1ccsc1N | > 100 µM (inactive) | > 100 µM (inactive) | > 100 µM (inactive) | > 100 µM (inactive) | > 100 µM (inactive) | > 100 µM (inactive) | > 100 µM (inactive) | > 100 µM (inactive) | > 100 µM (inactive) | > 100 µM (inactive) | > 100 µM (inactive) | > 100 | > 100 µM (inactive) | > 100 µM (inactive) | > 100 µM (inactive) | > 100 µM (inactive) | > 100 µM (inactive) | > 100 µM (inactive) | > 100 µM (inactive) | > 100 µM (inactive)
CCN(CC)CCNc1ccc2ncn3c4c(OC)ccc(O)c4c(=O)c1c23 | 33 µM (inactive) | 7.4 µM (inactive) | 32.1 µM (inactive) | 46.8 µM (inactive) | 1.16 µM (inactive) | 13.6 µM (inactive) | 2.74 µM (inactive) | 2.54 µM (inactive) | 0.764 µM (active) | 6.21 µM (inactive) | 42.4 µM (inactive) | 3.63 | 13.7 µM (inactive) | 66.2 µM (inactive) | 45.8 µM (inactive) | 92.5 µM (inactive) | 8.93 µM (inactive) | 24.9 µM (inactive) | 19.3 µM (inactive) | 46.3 µM (inactive)
N#Cc1c(O)n(-c2ccccc2)c(=O)c2c(N)n[nH]c12 | > 100 µM (inactive) | > 100 µM (inactive) | 95.1 µM (inactive) | > 100 µM (inactive) | > 100 µM (inactive) | > 100 µM (inactive) | > 100 µM (inactive) | > 100 µM (inactive) | > 100 µM (inactive) | > 100 µM (inactive) | > 100 µM (inactive) | > 100 | > 100 µM (inactive) | > 100 µM (inactive) | > 100 µM (inactive) | > 100 µM (inactive) | > 100 µM (inactive) | > 100 µM (inactive) | > 100 µM (inactive) | > 100 µM (inactive)
COc1ccc(C(OCC2OC(n3cnc4c(=O)n(Cc5ccccc5[N+](=O)[O-])nnc43)C(O)C2O)(c2ccccc2)c2ccc(OC)cc2)cc1 (stereo not given) | 9.53 µM (inactive) | 4.31 µM (inactive) | 10.7 µM (inactive) | 29.3 µM (inactive) | 5.6 µM (inactive) | 8.51 µM (inactive) | 2.38 µM (inactive) | 19.1 µM (inactive) | 5.57 µM (inactive) | 20.6 µM (inactive) | 27.8 µM (inactive) | 9.31 | 14.1 µM (inactive) | 20.4 µM (inactive) | 5.92 µM (inactive) | 20.8 µM (inactive) | 10.8 µM (inactive) | 10.4 µM (inactive) | 19.6 µM (inactive) | 45.7 µM (inactive)
CC(=O)NNc1nc(C)c(C(=O)/C=C/C=C/c2ccccc2)s1 | > 100 µM (inactive) | > 100 µM (inactive) | > 100 µM (inactive) | 24.2 µM (inactive) | 57.1 µM (inactive) | 48.9 µM (inactive) | > 100 µM (inactive) | 70.6 µM (inactive) | > 100 µM (inactive) | > 100 µM (inactive) | > 100 µM (inactive) | > 100 | 65.5 µM (inactive) | > 100 µM (inactive) | > 100 µM (inactive) | > 100 µM (inactive) | 62.7 µM (inactive) | > 100 µM (inactive) | 54.5 µM (inactive) | > 100 µM (inactive)
C/N=C(N)/N=C(\N)Nc1cc2ccccc2c2ccccc12 | 13 µM (inactive) | 15 µM (inactive) | 14.5 µM (inactive) | 16.3 µM (inactive) | 12.9 µM (inactive) | 17 µM (inactive) | 14.9 µM (inactive) | 20.6 µM (inactive) | 11.1 µM (inactive) | 14.7 µM (inactive) | 17.5 µM (inactive) | 16.7 | 13.3 µM (inactive) | 16.3 µM (inactive) | 20.7 µM (inactive) | 16.9 µM (inactive) | 12.4 µM (inactive) | 15.9 µM (inactive) | 15.2 µM (inactive) | 13 µM (inactive)
CCOC(=O)CCC(NC(=O)N1CCN(c2c(C)nc(C)nc2O)CC1)C(=O)OCC (stereo not given) | > 100 µM (inactive) | > 100 µM (inactive) | > 100 µM (inactive) | > 100 µM (inactive) | > 100 µM (inactive) | > 100 µM (inactive) | > 100 µM (inactive) | > 100 µM (inactive) | > 100 µM (inactive) | > 100 µM (inactive) | > 100 µM (inactive) | > 100 | > 100 µM (inactive) | > 100 µM (inactive) | > 100 µM (inactive) | > 100 µM (inactive) | > 100 µM (inactive) | > 100 µM (inactive) | > 100 µM (inactive) | < 0.01 µM (active)
O=C1/C(=C/c2ccc(O)cc2)CCCC1CN1CCCCC1 (stereo not given) | 2.55 µM (inactive) | 2.62 µM (inactive) | 2.56 µM (inactive) | 3.25 µM (inactive) | 1.79 µM (inactive) | 2.94 µM (inactive) | 1.78 µM (inactive) | 8.2 µM (inactive) | 14.3 µM (inactive) | 12.9 µM (inactive) | 16.3 µM (inactive) | 1.32 | 2.27 µM (inactive) | 16.6 µM (inactive) | 7.14 µM (inactive) | 3.71 µM (inactive) | 1.02 µM (active) | 7.28 µM (inactive) | 7.24 µM (inactive) | 8.63 µM (inactive)
